Experiments:
5-HT2B = 5-HT2B (Homo sapiens, UniProt P41595); assay: PDSP screening affinity 5-HT2B; type: binding
5-HT7 = 5-HT7 (Homo sapiens, UniProt P34969); assay: PDSP screening affinity 5-HT7; type: binding
h5-HT2A = h5-HT2A (Homo sapiens, UniProt P28223); assay: Ca2+ mobilization assay; type: cell-based; details: for Emax: HEK293, read-out: h5-HT2A Emax, percentage of the maximum response to 5-HT
5-HT2A receptor [1] = biological target: T1, 5-HT2A receptor (Homo sapiens, UniProt P28223); assay: h5-HT2A affinity, antagonist radioligand [3H]ketanserin; type: binding
human 5-HT2C receptor [2] = biological target: T2, human 5-HT2C receptor (Homo sapiens, UniProt P28335); assay: h5-HT2C affinity, agonist radioligand [125I]DOI; type: binding
T2 sequence (P28335 33-458): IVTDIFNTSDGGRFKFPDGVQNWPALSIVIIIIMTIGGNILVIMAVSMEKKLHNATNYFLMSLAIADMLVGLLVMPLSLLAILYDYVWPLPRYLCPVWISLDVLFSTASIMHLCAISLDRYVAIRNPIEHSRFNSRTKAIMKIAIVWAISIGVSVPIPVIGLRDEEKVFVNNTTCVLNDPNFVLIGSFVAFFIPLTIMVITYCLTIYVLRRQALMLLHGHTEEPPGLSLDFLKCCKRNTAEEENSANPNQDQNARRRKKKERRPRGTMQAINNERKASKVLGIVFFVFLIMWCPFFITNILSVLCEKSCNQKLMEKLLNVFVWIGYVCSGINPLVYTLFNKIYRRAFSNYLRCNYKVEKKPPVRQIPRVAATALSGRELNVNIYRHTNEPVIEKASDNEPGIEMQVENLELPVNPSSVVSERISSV

5-HT3 = biological target: T3, 5-HT3 (Homo sapiens, UniProt P46098); assay: PDSP screening affinity 5-HT3; type: binding
T3 sequence (P46098 24-478): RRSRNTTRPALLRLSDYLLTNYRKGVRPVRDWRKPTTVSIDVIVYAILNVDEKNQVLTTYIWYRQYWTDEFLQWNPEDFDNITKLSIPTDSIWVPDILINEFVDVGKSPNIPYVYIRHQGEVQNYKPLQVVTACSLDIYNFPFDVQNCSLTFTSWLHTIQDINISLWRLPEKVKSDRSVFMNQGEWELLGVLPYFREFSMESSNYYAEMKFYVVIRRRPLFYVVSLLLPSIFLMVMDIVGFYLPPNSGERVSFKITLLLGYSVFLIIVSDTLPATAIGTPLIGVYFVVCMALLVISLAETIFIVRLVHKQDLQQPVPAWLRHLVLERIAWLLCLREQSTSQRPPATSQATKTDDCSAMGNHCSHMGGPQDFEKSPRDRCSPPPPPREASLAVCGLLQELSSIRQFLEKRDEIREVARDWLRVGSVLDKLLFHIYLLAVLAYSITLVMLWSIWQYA

5-HT1A = biological target: T4, 5-HT1A (Homo sapiens, UniProt P08908); assay: PDSP screening affinity 5-HT1A; type: binding; details: 5-HT1A affinity
T4 sequence (P08908 1-422): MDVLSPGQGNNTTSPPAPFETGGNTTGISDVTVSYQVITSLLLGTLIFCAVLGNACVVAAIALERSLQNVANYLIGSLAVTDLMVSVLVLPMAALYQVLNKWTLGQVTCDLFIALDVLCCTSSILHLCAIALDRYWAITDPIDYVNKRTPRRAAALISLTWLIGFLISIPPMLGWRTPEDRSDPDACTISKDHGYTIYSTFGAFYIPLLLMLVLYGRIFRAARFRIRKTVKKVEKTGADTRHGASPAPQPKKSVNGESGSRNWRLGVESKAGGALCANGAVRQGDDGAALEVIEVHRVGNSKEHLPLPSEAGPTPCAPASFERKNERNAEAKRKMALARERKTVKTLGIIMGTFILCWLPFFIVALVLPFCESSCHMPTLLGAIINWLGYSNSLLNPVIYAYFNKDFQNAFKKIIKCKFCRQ

5-ht5a = 5-ht5a (Homo sapiens, UniProt P47898); assay: PDSP screening affinity 5-ht5a; type: binding; details: 5-ht5a affinity
r5-HT2C = biological target: T5, r5-HT2C (Rattus norvegicus, UniProt P08909); assay: Ca2+ mobilization assay; type: cell-based; details: for Emax: read-out: r5-HT2C Emax
T5 sequence (P08909 33-460): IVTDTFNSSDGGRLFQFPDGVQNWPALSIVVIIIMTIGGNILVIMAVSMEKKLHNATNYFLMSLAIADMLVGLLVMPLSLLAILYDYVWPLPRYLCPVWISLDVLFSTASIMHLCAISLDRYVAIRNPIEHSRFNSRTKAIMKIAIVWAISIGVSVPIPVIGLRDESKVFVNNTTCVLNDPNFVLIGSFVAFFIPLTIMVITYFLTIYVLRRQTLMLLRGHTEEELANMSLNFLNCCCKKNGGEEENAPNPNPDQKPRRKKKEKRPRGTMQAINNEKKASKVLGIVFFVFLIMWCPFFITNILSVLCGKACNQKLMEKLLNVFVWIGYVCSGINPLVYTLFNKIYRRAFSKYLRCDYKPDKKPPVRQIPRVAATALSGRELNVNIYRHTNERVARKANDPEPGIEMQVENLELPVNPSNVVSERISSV

5-HT6 = 5-HT6 (Homo sapiens, UniProt P50406); assay: PDSP screening affinity 5-HT6; type: binding; details: 5-HT6 affinity
h5-HT2C = biological target: T6, h5-HT2C (Homo sapiens, UniProt P28335); assay: Ca2+ mobilization assay; type: cell-based; details: for Emax: HEK293, read-out: h5HT2C Emax; for EC50: h5HT2C EC50, Ca2+ mobilization
T6 sequence (P28335 33-458): T2 sequence (P28335 33-458)

r5-HT2A = r5-HT2A (Rattus norvegicus, UniProt P14842); assay: Ca2+ mobilization assay; type: cell-based; details: for EC50: r5-HT2A EC50, Ca2+ mobilization; for Emax: read-out: r5-HT2A Emax, percentage of the maximum response to 5-HT
h5-HT2B = h5-HT2B (Homo sapiens, UniProt P41595); assay: Ca2+ mobilization assay; type: cell-based; details: for Emax: HEK293, read-out: h5-HT2B Emax
5-ht1e = 5-ht1e (Homo sapiens, UniProt P28566); assay: PDSP screening affinity 5-ht1e; type: binding
5-HT1B = 5-HT1B (Homo sapiens, UniProt P28222); assay: PDSP screening affinity 5-HT1B; type: binding; details: 5-HT1B affinity
5-HT2A receptor [3] = biological target: T1, 5-HT2A receptor; assay: h5-HT2A affinity, agonist radioligand [125I]DOI; type: binding
human 5-HT2C receptor [4] = biological target: T2, human 5-HT2C receptor; assay: h5-HT2C affinity, antagonist radioligand [3H]mesulergine; type: binding
Male C57BL/6J mice = assay: Mouse head twitch response
5-HT1D = 5-HT1D (Homo sapiens, UniProt P28221); assay: PDSP screening affinity 5-HT1D; type: binding
Sequence of 5-HT1D (P28221 whole entry): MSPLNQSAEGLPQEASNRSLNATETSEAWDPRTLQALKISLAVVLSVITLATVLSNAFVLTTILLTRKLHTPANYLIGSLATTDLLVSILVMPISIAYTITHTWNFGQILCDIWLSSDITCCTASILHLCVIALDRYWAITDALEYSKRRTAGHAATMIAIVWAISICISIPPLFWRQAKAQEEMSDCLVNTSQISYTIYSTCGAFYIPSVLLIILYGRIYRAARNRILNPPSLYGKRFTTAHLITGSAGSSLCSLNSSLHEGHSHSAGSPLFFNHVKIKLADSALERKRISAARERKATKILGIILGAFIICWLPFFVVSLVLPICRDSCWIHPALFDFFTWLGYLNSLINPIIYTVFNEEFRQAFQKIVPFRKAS

T1 sequence (P28223 whole entry): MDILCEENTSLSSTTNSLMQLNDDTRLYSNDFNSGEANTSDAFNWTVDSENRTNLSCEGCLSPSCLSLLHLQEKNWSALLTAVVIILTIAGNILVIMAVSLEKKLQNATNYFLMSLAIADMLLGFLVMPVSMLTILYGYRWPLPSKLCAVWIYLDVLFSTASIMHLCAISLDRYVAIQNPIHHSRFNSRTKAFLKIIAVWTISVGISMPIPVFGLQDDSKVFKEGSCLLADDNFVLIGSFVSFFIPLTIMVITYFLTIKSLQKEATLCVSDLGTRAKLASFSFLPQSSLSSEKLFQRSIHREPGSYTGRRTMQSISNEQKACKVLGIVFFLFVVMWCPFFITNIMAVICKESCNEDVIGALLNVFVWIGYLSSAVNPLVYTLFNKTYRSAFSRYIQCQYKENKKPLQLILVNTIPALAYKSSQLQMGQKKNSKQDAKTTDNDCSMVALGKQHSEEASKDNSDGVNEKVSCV
Sequence of h5-HT2A (P28223 whole entry): as above
Sequence of h5-HT2B (P41595 whole entry): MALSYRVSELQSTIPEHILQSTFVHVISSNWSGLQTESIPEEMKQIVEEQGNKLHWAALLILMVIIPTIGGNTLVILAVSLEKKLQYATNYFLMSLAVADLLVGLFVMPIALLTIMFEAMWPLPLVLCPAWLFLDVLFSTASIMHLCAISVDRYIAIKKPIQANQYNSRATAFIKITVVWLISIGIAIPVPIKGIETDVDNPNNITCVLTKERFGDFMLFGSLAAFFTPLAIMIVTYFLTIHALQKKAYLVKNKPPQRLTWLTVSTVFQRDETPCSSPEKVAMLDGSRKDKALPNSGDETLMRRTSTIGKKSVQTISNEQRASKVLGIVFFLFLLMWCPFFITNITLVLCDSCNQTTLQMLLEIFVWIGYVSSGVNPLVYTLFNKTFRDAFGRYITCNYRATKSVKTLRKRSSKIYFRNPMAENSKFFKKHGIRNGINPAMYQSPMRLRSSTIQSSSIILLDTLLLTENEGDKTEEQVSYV
Sequence of 5-HT2B (P41595 whole entry): as above
Sequence of 5-HT7 (P34969 whole entry): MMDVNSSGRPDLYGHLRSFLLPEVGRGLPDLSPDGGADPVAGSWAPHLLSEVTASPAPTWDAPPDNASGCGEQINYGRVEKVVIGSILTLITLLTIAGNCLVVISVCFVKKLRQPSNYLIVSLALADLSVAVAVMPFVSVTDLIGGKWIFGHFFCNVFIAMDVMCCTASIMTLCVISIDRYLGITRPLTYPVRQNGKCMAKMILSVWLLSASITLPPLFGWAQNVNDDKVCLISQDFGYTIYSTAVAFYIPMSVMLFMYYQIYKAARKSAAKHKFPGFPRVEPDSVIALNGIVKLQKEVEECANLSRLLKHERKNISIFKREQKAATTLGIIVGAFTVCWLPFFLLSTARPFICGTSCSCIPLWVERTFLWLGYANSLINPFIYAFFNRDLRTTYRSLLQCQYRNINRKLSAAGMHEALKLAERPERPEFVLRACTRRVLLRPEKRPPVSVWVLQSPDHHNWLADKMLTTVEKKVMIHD
Sequence of r5-HT2A (P14842 whole entry): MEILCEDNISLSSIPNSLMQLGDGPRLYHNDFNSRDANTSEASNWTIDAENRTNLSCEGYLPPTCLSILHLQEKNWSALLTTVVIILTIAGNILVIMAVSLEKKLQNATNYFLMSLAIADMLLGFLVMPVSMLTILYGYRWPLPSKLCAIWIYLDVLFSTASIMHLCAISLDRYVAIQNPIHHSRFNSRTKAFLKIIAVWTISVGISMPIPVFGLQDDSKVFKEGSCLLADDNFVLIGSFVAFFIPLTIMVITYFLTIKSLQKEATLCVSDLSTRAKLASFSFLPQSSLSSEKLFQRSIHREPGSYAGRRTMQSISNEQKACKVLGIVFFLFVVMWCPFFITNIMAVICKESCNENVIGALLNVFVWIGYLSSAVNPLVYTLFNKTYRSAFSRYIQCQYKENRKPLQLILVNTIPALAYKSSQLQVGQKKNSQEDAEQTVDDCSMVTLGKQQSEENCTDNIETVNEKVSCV
Sequence of 5-ht1e (P28566 whole entry): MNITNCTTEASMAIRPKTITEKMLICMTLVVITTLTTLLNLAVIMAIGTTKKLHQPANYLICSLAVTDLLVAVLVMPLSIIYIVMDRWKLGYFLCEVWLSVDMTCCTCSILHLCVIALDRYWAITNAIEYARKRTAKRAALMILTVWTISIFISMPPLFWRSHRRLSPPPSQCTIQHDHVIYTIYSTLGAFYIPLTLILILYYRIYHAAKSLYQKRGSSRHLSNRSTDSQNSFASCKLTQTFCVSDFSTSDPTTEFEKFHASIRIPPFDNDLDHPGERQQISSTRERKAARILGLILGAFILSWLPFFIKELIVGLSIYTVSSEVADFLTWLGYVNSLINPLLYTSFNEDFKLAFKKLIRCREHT
Sequence of 5-HT6 (P50406 whole entry): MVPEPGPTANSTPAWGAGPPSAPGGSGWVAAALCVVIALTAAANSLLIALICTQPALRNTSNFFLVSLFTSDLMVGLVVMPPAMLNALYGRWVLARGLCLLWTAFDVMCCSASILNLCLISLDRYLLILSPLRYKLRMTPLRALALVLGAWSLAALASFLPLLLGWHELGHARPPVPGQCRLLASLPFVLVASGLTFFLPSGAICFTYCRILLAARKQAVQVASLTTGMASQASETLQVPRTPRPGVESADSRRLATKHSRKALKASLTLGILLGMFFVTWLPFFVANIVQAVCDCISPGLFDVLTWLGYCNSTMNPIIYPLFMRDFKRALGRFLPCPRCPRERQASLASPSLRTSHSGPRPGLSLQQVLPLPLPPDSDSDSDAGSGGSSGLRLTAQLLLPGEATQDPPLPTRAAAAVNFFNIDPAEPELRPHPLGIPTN
Sequence of 5-HT1B (P28222 whole entry): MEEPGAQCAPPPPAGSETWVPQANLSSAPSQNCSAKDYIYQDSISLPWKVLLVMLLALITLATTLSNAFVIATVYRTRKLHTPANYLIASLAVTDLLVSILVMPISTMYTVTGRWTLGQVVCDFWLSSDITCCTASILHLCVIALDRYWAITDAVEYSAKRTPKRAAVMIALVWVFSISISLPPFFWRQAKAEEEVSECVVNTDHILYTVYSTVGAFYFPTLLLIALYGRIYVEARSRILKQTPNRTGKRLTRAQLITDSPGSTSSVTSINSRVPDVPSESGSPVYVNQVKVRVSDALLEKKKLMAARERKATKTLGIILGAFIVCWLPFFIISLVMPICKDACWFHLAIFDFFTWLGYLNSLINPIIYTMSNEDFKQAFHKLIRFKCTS
Sequence of 5-ht5a (P47898 whole entry): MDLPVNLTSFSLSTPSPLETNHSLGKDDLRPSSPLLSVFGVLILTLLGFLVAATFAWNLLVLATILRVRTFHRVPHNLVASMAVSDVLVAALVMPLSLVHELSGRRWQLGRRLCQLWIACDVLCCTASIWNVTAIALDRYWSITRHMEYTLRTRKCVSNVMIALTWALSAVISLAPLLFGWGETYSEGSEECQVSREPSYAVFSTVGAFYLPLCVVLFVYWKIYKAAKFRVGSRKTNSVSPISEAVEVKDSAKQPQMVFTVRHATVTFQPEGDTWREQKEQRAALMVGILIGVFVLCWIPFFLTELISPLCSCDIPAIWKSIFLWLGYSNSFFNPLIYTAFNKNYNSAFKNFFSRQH

Row | Compound | Ki (5-HT2B; 5-HT2B affinity) [µM] | Ki (5-HT2B; 5-HT2B pKi ± SEM) [µM] | Ki (5-HT7; 5-HT7 affinity) [µM] | EC50 (h5-HT2A) [µM] | Emax (h5-HT2A) [%] | Ki (5-HT2A receptor [1]) [µM] | Ki (human 5-HT2C receptor [2]) [µM] | Ki (5-HT3) [µM] | Ki (5-HT1A) [µM] | Ki (5-ht5a) [µM] | Emax (r5-HT2C) [%] | Ki (5-HT6) [µM] | Emax (h5-HT2C) [%] | EC50 (h5-HT2C) [µM] | EC50 (r5-HT2A) [µM] | Emax (r5-HT2A) [%] | Emax (h5-HT2B) [%] | Ki (5-ht1e) [µM] | Ki (5-HT1B) [µM] | Ki (5-HT2A receptor [3]) [µM] | other results
1 | COc1ccc2[nH]cc(CCNCc3cccc(Cl)c3)c2c1 [Compound 5h, N-(3-Chlorobenzyl)-2-(5-methoxy-1H-indol-3-yl)ethan-1-amine] | 0.0066 | 0.00692 | 0.281 | 0.014 | 81.2 ± 1.3 | 0.00525 | 0.00427 | > 10 | 0.195 | 2.31 | 105 ± 2 | 0.05 | 85 ± 6 | 0.316 | 0.083 | 70.1 ± 1 | ≤ 15 | > 10 | 4.39 | 0.00105 | EC50 (r5-HT2C; r5-HT2C EC50, Ca2+ mobilization): 0.286 µM; EC50 (h5-HT2B; h5-HT2B EC50, Ca2+ mobilization): 0.05 µM; Ki (human 5-HT2C receptor [4]): 0.0282 µM; max counts (Male C57BL/6J mice; HTR counts, SC): 10.6; ED50 (Male C57BL/6J mice; Mus musculus, sc, read-out: ED50 mg/kg (95% CI), mouse head twitch): 4.43 mg/kg; magnitude of peak effect × vehicle (Male C57BL/6J mice; SC, mouse head twitch): 8.0 × vehicle; maximally effective dose (Male C57BL/6J mice; SC, mouse head twitch): 30 mg/kg; Ki (5-HT1D): 0.282 µM
2 | COc1ccc(CNCCc2c[nH]c3ccc(OC)cc23)cc1 [Compound 5c, N-(4-Methoxybenzyl)-2-(5-methoxy-1H-indol-3-yl)ethan-1-amine] | 0.033 | 0.0324 | 0.037 | 0.042 | 84.1 ± 1.3 | 0.0692 | 0.0141 | > 10 | 0.076 | 2.39 | 102 ± 2 | 0.353 | 112 ± 5 | 0.0751 | 0.19 | 75 ± 1.3 | 81 ± 1 | > 10 | 1.06 | 0.0105 | Ki (5-HT7; 5-HT7 pKi ± SEM): 0.0363 µM; EC50 (r5-HT2C; r5-HT2C pEC50 ± SEM, Ca2+ mobilization): 0.0186 µM; EC50 (h5-HT2B; h5-HT2B pEC50 ± SEM, Ca2+ mobilization, NA = not active, Emax ≤ 15%): 0.0229 µM; Ki (human 5-HT2C receptor [4]): 0.126 µM; activity in the HTR assay (active / inactive) (Male C57BL/6J mice; SC, doses up to 30 mg/kg): None of the phenethylamines or tryptamines with 4-substituted N-benzyl groups, 4b, 4e, 5c, or 5f, was active; Ki (5-HT1D): 0.161 µM

Reference: publication PMC4505863 (ACS Chemical Neuroscience, 2014)
